Assay results reported in patent publication EP4121415B1, “INHIBITORS OF CYTOKININ OXIDASE DERIVED FROM 1-[2-(HYDROXYALKYL)PHENYL]-3-YLUREA, USE THEREOF AND PREPARATIONS CONTAINING THESE DERIVATIVES” (Univerzita Palackého v Olomouci, priority 2020, dated 2021).
Read-outs that look alike come from different tables or passages of the source.

Biological target: T1, maize enzyme cytokinin oxidase/dehydrogenase 1 (ZmCKX1) (Zea mays, UniProt Q9T0N8)
T1 construct: made in house; host or cells: Yarrowia lipolytica
T1 sequence (Q9T0N8 19-534): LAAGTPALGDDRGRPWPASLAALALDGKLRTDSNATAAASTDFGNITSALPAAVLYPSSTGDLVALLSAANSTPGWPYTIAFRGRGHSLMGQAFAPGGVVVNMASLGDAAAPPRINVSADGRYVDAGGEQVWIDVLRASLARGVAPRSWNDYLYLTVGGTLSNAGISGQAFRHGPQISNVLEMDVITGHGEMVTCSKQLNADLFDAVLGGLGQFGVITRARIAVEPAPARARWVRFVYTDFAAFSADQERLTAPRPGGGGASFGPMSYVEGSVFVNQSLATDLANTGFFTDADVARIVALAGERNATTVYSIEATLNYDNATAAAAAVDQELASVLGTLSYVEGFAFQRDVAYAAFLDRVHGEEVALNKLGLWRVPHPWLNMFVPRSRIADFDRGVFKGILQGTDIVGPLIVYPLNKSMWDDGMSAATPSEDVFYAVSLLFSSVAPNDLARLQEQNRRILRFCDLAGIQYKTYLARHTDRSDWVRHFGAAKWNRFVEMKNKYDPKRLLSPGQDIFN
Experiment: ZmCKX1 inhibition, PMS/MTT assay
Format: biochemical
Experimental: The IC50 (concentration of a substance that causes 50% inhibition of the enzyme activity) was measured by PMS/MTT assay [phenazine methosulphate/3-(4,5-dimethylthiazol-2-yl)-2,5-diphenyltetrazolium bromide]. The assay was performed in 96-well microtiter plates. Each well contained a reaction mixture with a final concentration of: 0.1 M KH2PO4, pH 7.4, 1 mM MTT, 0.2 mM PMS, tested substance in a concentration range of 0.1 nM - 1 µM and 10 µM N^6-isopentenyladenine (iP) as a substrate. To this reaction mixture 100 µL of medium containing the active enzyme ZmCKX1 was added. The enzyme was produced by the yeast Yarrowia lipolytica and isolated according to the protocol (Kopečný D. et al., 2005, […] 87:1011-1022). The plates were incubated for 30 min at 37 °C and the enzymatic reaction was stopped by the addition of 25 µL of 35% acetic acid. Then, the absorbance at 578 nm was measured on a spectrophotometer, and the absorbance of the sample without the substrate was substracted as a reference value. The IC50 value was determined from the concentration-dependent curves in GraphPad Prism software. The values shown in Table 1 are the average of at least two measurements each performed in three repetitions. […] This also applies to 3,5-DCl-Ph-U derivatives.

[1] = 10 µM N6-isopentenyladenine (iP) as substrate, pH 7.4, 30 min at 37 °C, average of at least two measurements, read-out: IC50 (µM) ZmCKX1

## NCCNc1cc(NC(=O)Nc2ccccc2CO)cc(OC(F)(F)F)c1 [Compound 39, 1-[3-(2-aminoethylamino)-5-trifluoromethoxyphenyl]-3-(2-hydroxymethylphenyl)urea]
[1]
  IC50: 0.095 µM

## O=C(Nc1cccc(OC(F)(F)F)c1)Nc1cccc(Br)c1CO [Compound 31, 1-(3-bromo-2-hydroxymethylphenyl)-3-(3-trifluoro-methoxyphenyl)urea]
[1]
  IC50: 0.37 µM

## O=C(Nc1cc(Cl)nc(Cl)c1)Nc1cc(F)ccc1CCO [Compound 14, 1-[5-fluoro-2-(2-hydroxyethyl)phenyl]-3-(2,6-dichloropyridin-4-yl)urea]
[1]
  IC50: 0.056 µM

## O=C(Nc1cccc(OC(F)(F)F)c1)Nc1cc(F)ccc1CCO [Compound 63, 1-[5-fluoro-2-(2-hydroxyethyl)phenyl]-3-(3-trifluoromethoxyphenyl)urea]
[1]
  IC50: 0.036 µM

## O=C(Nc1cccc(OC(F)(F)F)c1)Nc1cccc(Cl)c1CO [Compound 30, 1-(3-Chloro-2-hydroxymethylphenyl)-3-(3-trifluoromethoxyphenyl)urea]
[1]
  IC50: 0.3 µM

## O=C(Nc1cc(Cl)nc(Cl)c1)Nc1ccccc1CO [Compound 5, 1-(2,6-dichloropyridin-4-yl)-3-(2-hydroxymethylphenyl)urea]
[1]
  IC50: 0.7 µM

## COc1cc(NCCN)cc(NC(=O)Nc2ccccc2CO)c1 [Compound 24, 1-[3-(2-aminoethylamino)-5-methoxyphenyl]-3-(2-hydroxymethylphenyl)urea]
[1]
  IC50: 0.18 µM

## CSc1cccc(NC(=O)Nc2ccccc2CO)c1 [Compound 26, 1-(2-hydroxymethylphenyl)-3-(3-methylsulphanylphenyl)urea]
[1]
  IC50: 1.5 µM

## O=C(Nc1cc(Cl)cc(Cl)c1)Nc1cc(Cl)cc(Cl)c1CO [Compound 21, 1-(3,5-Dichloro-2-hydroxymethylphenyl)-3-(3,5-dichlorophenyl)urea]
[1]
  IC50: 0.02 µM

## O=C(Nc1cc(Cl)nc(Cl)c1)Nc1ccccc1CCO [Compound 13, 1-(2,6-Dichloropyridin-4-yl)-3-[2-(2-hydroxyethyl)phenyl]urea]
[1]
  IC50: 0.43 µM

## COc1cc(NC(=O)Nc2cc(F)ccc2CCO)ccn1 [Compound 15, 1-[5-fluoro-2-(2-hydroxyethyl)phenyl]-3-(2-methoxypyridin-4-yl)urea]
[1]
  IC50: 0.15 µM

## COc1cc(NC(=O)Nc2ccccc2CO)ccn1 [Compound 7, 1-(2-methoxypyridin-4-yl)-3-(2-hydroxymethylphenyl)urea]
[1]
  IC50: 1.1 µM

## O=C(Nc1cccc(OC(F)(F)F)c1)Nc1cc(F)ccc1CO [Compound 32, 1-(5-fluoro-2-hydroxymethylphenyl)-3-(3-trifluoromethoxyphenyl)urea]
[1]
  IC50: 0.11 µM

## O=C(Nc1cccc(SC(F)(F)F)c1)Nc1ccccc1CO [Compound 41, 1-(2-hydroxymethylphenyl)-3-(3-trifluoromethylsulphanylphenyl)urea]
[1]
  IC50: 0.14 µM

## O=C(Nc1cc(F)cc(F)c1)Nc1ccccc1CCO [Compound 44, 1-(3,5-difluorophenyl)-3-[2-(2-hydroxyethyl)phenyl]urea]
[1]
  IC50: 0.36 µM

## O=C(Nc1cc(Cl)cc(Cl)c1)Nc1ccccc1CO [Compound 18, 1-(3,5-Dichlorophenyl)-3-(2-hydroxymethylphenyl)urea]
[1]
  IC50: 0.4 µM

## O=C(Nc1cc(Br)cc(Br)c1)Nc1ccccc1CCO [Compound 46, 1-(3,5-dibromophenyl)-3-[2-(2-hydroxyethyl)phenyl]urea]
[1]
  IC50: 0.14 µM

## O=C(Nc1cc(Cl)cc(Cl)c1)Nc1ccccc1CCO [Compound 45, 1-(3,5-Dichlorophenyl)-3-[2-(2-hydroxyethyl)phenyl]urea]
[1]
  IC50: 0.18 µM

## O=C(Nc1ccnc(Cl)c1)Nc1ccccc1CCO [Compound 12, 1-(2-Chloropyridin-4-yl)-3-[2-(2-hydroxyethyl)phenyl]urea]
[1]
  IC50: 1.3 µM

## O=C(Nc1cc(Br)cc(Br)c1)Nc1ccccc1CO [Compound 19, 1-(3,5-dibromophenyl)-3-(2-hydroxymethylphenyl)urea]
[1]
  IC50: 0.33 µM

## O=C(Nc1ccnc(F)c1)Nc1ccccc1CO [Compound 1, 1-(2-fluoropyridin-4-yl)-3-(2-hydroxymethylphenyl)urea]
[1]
  IC50: 2.5 µM

## COc1cc(Br)cc(NC(=O)Nc2ccccc2CCO)c1 [Compound 56, 1-(3-bromo-5-methoxyphenyl)-3-[2-(2-hydroxyethyl)phenyl]urea]
  IC50: 0.14 µM

## COc1cc(Cl)cc(NC(=O)Nc2ccccc2CCO)c1 [Compound 55, 1-(3-Chloro-5-methoxyphenyl)-3-[2-(2-hydroxyethyl)phenyl]urea]
[1]
  IC50: 0.18 µM

## O=C(Nc1ccnc(Cl)c1)Nc1ccccc1CO [Compound 4, 1-(2-chloropyridin-4-yl)-3-(2-hydroxymethylphenyl)urea]
[1]
  IC50: 1.6 µM

## O=C(Nc1cccc(SC(F)(F)F)c1)Nc1cc(Cl)ccc1CO [Compound 43, 1-(5-chloro-2-hydroxymethylphenyl)-3-(3-trifluoromethylsulphanylphenyl)urea]
[1]
  IC50: 0.02 µM

## COc1cc(NCCN)cc(NC(=O)Nc2ccccc2CCO)c1 [Compound 58]
[1]
  IC50: 0.13 µM

## O=C(Nc1cccc(OC(F)(F)F)c1)Nc1cccc(F)c1CO [Compound 29, 1-(3-fluoro-2-hydroxymethylphenyl)-3-(3-trifluoromethoxyphenyl)urea]
[1]
  IC50: 0.36 µM

## O=C(Nc1cccc(OC(F)(F)F)c1)Nc1ccccc1CO [Compound 28, 1-(2-Hydroxymethylphenyl)-3-(3-trifluoromethoxyphenyl)urea]
[1]
  IC50: 1.3 µM

## O=C(Nc1cc(F)cc(Br)c1)Nc1ccccc1CCO [Compound 47, 1-(3-bromo-5-fluorophenyl)-3-[2-(2-hydroxyethyl)phenyl]urea]
  IC50: 0.17 µM

## O=C(Nc1cc(NCCO)cc(OC(F)(F)F)c1)Nc1ccccc1CO [Compound 38, 1-[3-(2-hydroxyethylamino)-5-trifluoromethoxyphenyl]-3-(2-hydroxymethylphenyl)urea]
[1]
  IC50: 0.1 µM

## O=C(Nc1cccc(OC(F)(F)F)c1)Nc1cc(F)cc(F)c1CO [Compound 35, 1-(3,5-Difluoro-2-hydroxymethylphenyl)-3-(3-trifluoromethoxyphenyl)urea]
[1]
  IC50: 0.085 µM

## O=C(Nc1cc(F)nc(F)c1)Nc1ccccc1CCO [Compound 10, 1-(2,6-difluoropyridin-4-yl)-3-[2-(2-hydroxyethyl)phenyl]urea]
[1]
  IC50: 0.72 µM

## O=C(Nc1cccc(OC(F)(F)F)c1)Nc1cc(Cl)ccc1CO [Compound 33, 1-(5-Chloro-2-hydroxymethylphenyl)-3-(3-trifluoromethoxyphenyl)urea]
[1]
  IC50: 0.06 µM

## NCCNc1cc(NC(=O)Nc2ccccc2CCO)cc(OC(F)(F)F)c1 [Compound 67]
[1]
  IC50: 0.022 µM

## COc1cc(F)cc(NC(=O)Nc2ccccc2CCO)c1 [Compound 54, 1-(3-fluoro-5-methoxyphenyl)-3-[2-(2-hydroxyethyl)phenyl]urea]
[1]
  IC50: 0.28 µM

## O=C(Nc1cccc(OC(F)(F)F)c1)Nc1cc(Br)cc(Br)c1CO [Compound 37, 1-(3,5-dibromo-2-hydroxymethylphenyl)-3-(3-trifluoromethoxyphenyl)urea]
[1]
  IC50: 0.051 µM

## O=C(Nc1cccc(OC(F)(F)F)c1)Nc1cc(Cl)cc(Cl)c1CO [Compound 36, 1-(3,5-dichloro-2-hydroxymethylphenyl)-3-(3-trifluoromethoxyphenyl)urea]
[1]
  IC50: 0.032 µM

## O=C(Nc1cc(Cl)cc(Cl)c1)Nc1cccc(Cl)c1CO [Compound 20, 1-(3-Chloro-2-hydroxymethylphenyl)-3-(3,5-dichlorophenyl)urea]
[1]
  IC50: 0.27 µM

## COc1cc(NCCO)cc(NC(=O)Nc2ccccc2CO)c1 [Compound 23, 1-[3-(2-hydroxyethylamino)-5-methoxyphenyl]-3-(2-hydroxymethylphenyl)urea]
[1]
  IC50: 0.2 µM

## COc1cc(NCCO)cc(NC(=O)Nc2ccccc2CCO)c1 [Compound 57, 1-[3-(2-hydroxyethylamino)-5-methoxyphenyl]-3-[2-(2-hydroxyethyl)phenyl]urea]
[1]
  IC50: 0.16 µM

## O=C(Nc1cc(F)cc(Cl)c1)Nc1ccccc1CCO [Compound 48, 1-(3-chloro-5-fluorophenyl)-3-[2-(2-hydroxyethyl)phenyl]urea]
[1]
  IC50: 0.21 µM

## O=C(Nc1ccnc(F)c1)Nc1ccccc1CCO [Compound 9, 1-(2-fluoropyridin-4-yl)-3-[2-(2-hydroxyethyl)phenyl]urea]
[1]
  IC50: 1.6 µM

## COc1cccc(NC(=O)Nc2ccccc2CCO)c1 [Compound 50, 1-[2-(2-hydroxyethyl)phenyl]-3-(3-methoxyphenyl)urea]
[1]
  IC50: 0.27 µM

## O=C(Nc1cc(Cl)cc(Cl)c1)Nc1cc(Cl)cc(Cl)c1CCO [Compound 49, 1-[3,5-Dichloro-2-(2-hydroxyethyl)phenyl]-3-(3,5-dichlorophenyl)urea]
[1]
  IC50: 0.01 µM

## O=C(Nc1cc(F)cc(F)c1)Nc1ccccc1CO [Compound 17, 1-(3,5-difluorophenyl)-3-(2-hydroxymethylphenyl)urea]
[1]
  IC50: 0.65 µM

## O=C(Nc1cc(F)nc(F)c1)Nc1ccccc1CO [Compound 3, 1-(2,6-difluoropyridin-4-yl)-3-(2-hydroxymethylphenyl)urea]
[1]
  IC50: 0.82 µM
